Columns and labels:
rape = assay: Test C preemergence/postemergence greenhouse plant response rating 0 to 100; format: in vivo, Brassica napus; conditions: for Plant response rating, Rape: 0 to 100 scale
Outline: (§1)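 Compounds in non-phytotoxic solvent went onto sandy loam before emergence (seeded one day earlier) or onto plants at the one-to-four leaf stage. Duck salad was treated via flood water (~2.5 cm, maintained) over silt loam.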

blackgrass = assay: as above; format: in vivo, Alopecurus myosuroides; conditions: for Plant response rating, Blackgrass: 0 to 100 scale
Outline: as §1

umbrella sedge = assay: Test C flood test plant response rating 0 to 100; format: in vivo, Cyperus difformis; conditions: for Plant response rating Umbrella sedge: flood test species listed under POSTEMERGENCE, 0 to 100 scale
Outline: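 Compounds in non-phytotoxic solvent applied preemergence to sandy loam one day after planting, postemergence at the 1–4 leaf stage, or to ~2.5 cm floodwater over silt loam.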

chickweed [1] = assay: Test C preemergence/postemergence greenhouse plant response rating 0 to 100; format: in vivo, Stellaria media; conditions: for Plant response rating, Chickweed: 0 to 100 scale
Outline: as §1

pigweed = assay: as above; format: in vivo, Amaranthusretroflexus; conditions: for Plant response rating Pigweed: 0 to 100 scale
Outline: as §1

chickweed [2] = assay: Test B preemergence/postemergence greenhouse plant response rating 0 to 10; format: in vivo, Stellaria media; conditions: for Plant response rating, Chickweed: 0 to 10 scale
Outline: (§2)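 Postemergence treatment of plants two to eighteen cm tall ran alongside preemergence treatment of planted seed, each using compound in a non-phytotoxic solvent.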

velvetleaf = assay: as above; format: in vivo, Abutilon theophrasti; conditions: 0 to 10 scale
Outline: as §2

sugar beet = assay: as above; format: in vivo, Beta vulgaris; conditions: 0 to 10 scale
Outline: as §2

bedstraw = assay: as above; format: in vivo, Galium aparine; conditions: for Plant response rating, Bedstraw: 0 to 10 scale
Outline: as §2

barley [3] = assay: as above; format: in vivo, Hordeum vulgare; conditions: for Plant response rating, Barley: 0 to 10 scale
Outline: as §2

soybean [4] = assay: as above; format: in vivo, Glycine max; conditions: 0 to 10 scale
Outline: as §2

barley [5] = assay: Test C preemergence/postemergence greenhouse plant response rating 0 to 100; format: in vivo, Hordeum vulgare; conditions: for Plant response rating Barley Igri: 0 to 100 scale
Outline: as §1

sorghum = assay: Test B preemergence/postemergence greenhouse plant response rating 0 to 10; format: in vivo, Sorghum bicolor; conditions: 0 to 10 scale
Outline: as §2

cocklebur = assay: as above; format: in vivo, Xanthium pensylvanicum; conditions: for Plant response rating, Cocklebur: 0 to 10 scale
Outline: as §2

soybean [6] = assay: Test C preemergence/postemergence greenhouse plant response rating 0 to 100; format: in vivo, Glycine max; conditions: for Plant response rating, Soybean: 0 to 100 scale
Outline: as §1

ryegrass = assay: as above; format: in vivo, Lolium multiflorum; conditions: for Plant response rating Ryegrass: 0 to 100 scale
Outline: as §1

wild buckwheat = assay: Test B preemergence/postemergence greenhouse plant response rating 0 to 10; format: in vivo, Polygonum convolvulus; conditions: 0 to 10 scale
Outline: as §2

morningglory = assay: as above; format: in vivo, Ipomoea hederacea; conditions: 0 to 10 scale
Outline: as §2

C#CCOc1cc(-c2nn3c(c2Br)CCCC3)c(F)cc1Cl [Compound 26]
70: Plant response rating, Blackgrass (blackgrass; POSTEMERGENCE, 250 g/ha) | Plant response rating (0 to 100), Umbrella sedge (umbrella sedge; Rate 16 g/ha, under POSTEMERGENCE head (flood test species))
1: Plant response rating, Barley (barley [3]; Rate 200 g/ha, PREEMERGENCE) | Plant response rating, Soybean (soybean [4]; PREEMERGENCE, Rate 50 g/ha) | Plant response rating, Cocklebur (cocklebur; PREEMERGENCE, Rate 50 g/ha)
5: Plant response rating, Sorghum (sorghum; POSTEMERGENCE, Rate 50 g/ha)
7: Plant response rating, Wild buckwheat (wild buckwheat; PREEMERGENCE, Rate 50 g/ha)
95: Plant response rating Umbrella sedge (umbrella sedge; 62 g/ha)
9: Plant response rating, Sugar beet (sugar beet; PREEMERGENCE, Rate 50 g/ha) | Plant response rating (0 to 10 scale), Bedstraw (bedstraw; POSTEMERGENCE, Rate 50 g/ha) | Plant response rating, Bedstraw (bedstraw; POSTEMERGENCE, Rate 200 g/ha) | Plant response rating, Soybean (soybean [4]; POSTEMERGENCE, Rate 200 g/ha) | Plant response rating, Cocklebur (cocklebur; Rate 200 g/ha, PREEMERGENCE) | Plant response rating, Morningglory (morningglory; POSTEMERGENCE, Rate 50 g/ha) | Plant response rating, Morningglory (morningglory; POSTEMERGENCE, Rate 200 g/ha) | Plant response rating, Morningglory (morningglory; Rate 200 g/ha, PREEMERGENCE)
0: Plant response rating (0 to 100), Rape (rape; PREEMERGENCE, Rate 4 g/ha) | Plant response rating (0 to 100), Rape (rape; Rate 16 g/ha, PREEMERGENCE) | Plant response rating (0 to 100), Blackgrass (blackgrass; PREEMERGENCE, Rate 4 g/ha) | Plant response rating (0 to 100), Blackgrass (blackgrass; Rate 16 g/ha, PREEMERGENCE) | Plant response rating (0 to 100), Umbrella sedge (umbrella sedge; POSTEMERGENCE section, flood test, Rate 4 g/ha) | Plant response rating, Barley (barley [3]; PREEMERGENCE, Rate 50 g/ha) | Plant response rating Barley Igri (barley [5]; PREEMERGENCE, 62 g/ha) | Plant response rating (0 to 100), Barley Igri (barley [5]; PREEMERGENCE, Rate 4 g/ha) | Plant response rating (0 to 100), Barley Igri (barley [5]; Rate 16 g/ha, PREEMERGENCE) | Plant response rating (0 to 100), Soybean (soybean [6]; PREEMERGENCE, Rate 4 g/ha) | Plant response rating (0 to 100), Soybean (soybean [6]; Rate 16 g/ha, PREEMERGENCE) | Plant response rating Ryegrass (ryegrass; PREEMERGENCE, 62 g/ha) | Plant response rating (0 to 100), Ryegrass (ryegrass; PREEMERGENCE, Rate 4 g/ha) | Plant response rating (0 to 100), Ryegrass (ryegrass; Rate 16 g/ha, PREEMERGENCE)
100: Plant response rating, Rape (rape; POSTEMERGENCE, 62 g/ha) | Plant response rating, Rape (rape; POSTEMERGENCE, 250 g/ha) | Plant response rating Umbrella sedge (umbrella sedge; 250 g/ha) | Plant response rating, Chickweed (chickweed [1]; POSTEMERGENCE, 62 g/ha) | Plant response rating, Chickweed (chickweed [1]; POSTEMERGENCE, 250 g/ha) | Plant response rating, Chickweed (chickweed [1]; PREEMERGENCE, 62 g/ha) | Plant response rating, Chickweed (chickweed [1]; PREEMERGENCE, 250 g/ha) | Plant response rating Pigweed (pigweed; POSTEMERGENCE, 62 g/ha) | Plant response rating Pigweed (pigweed; POSTEMERGENCE, 250 g/ha) | Plant response rating (0 to 100), Pigweed (pigweed; POSTEMERGENCE, Rate 4 g/ha) | Plant response rating Pigweed (pigweed; PREEMERGENCE, 62 g/ha) | Plant response rating Pigweed (pigweed; PREEMERGENCE, 250 g/ha) | Plant response rating (0 to 100), Pigweed (pigweed; Rate 16 g/ha, POSTEMERGENCE) | Plant response rating (0 to 100), Pigweed (pigweed; Rate 16 g/ha, PREEMERGENCE) | Plant response rating, Soybean (soybean [6]; PREEMERGENCE, 250 g/ha)
10: Plant response rating (0 to 10 scale), Chickweed (chickweed [2]; POSTEMERGENCE, Rate 50 g/ha) | Plant response rating, Chickweed (chickweed [2]; POSTEMERGENCE, Rate 200 g/ha) | Plant response rating, Chickweed (chickweed [2]; PREEMERGENCE, Rate 50 g/ha) | Plant response rating, Chickweed (chickweed [2]; Rate 200 g/ha, PREEMERGENCE) | Plant response rating, Velvetleaf (velvetleaf; POSTEMERGENCE, Rate 50 g/ha) | Plant response rating, Velvetleaf (velvetleaf; POSTEMERGENCE, Rate 200 g/ha) | Plant response rating, Velvetleaf (velvetleaf; PREEMERGENCE, Rate 50 g/ha) | Plant response rating, Velvetleaf (velvetleaf; Rate 200 g/ha, PREEMERGENCE) | Plant response rating, Sugar beet (sugar beet; POSTEMERGENCE, Rate 50 g/ha) | Plant response rating, Sugar beet (sugar beet; POSTEMERGENCE, Rate 200 g/ha) | Plant response rating, Sugar beet (sugar beet; Rate 200 g/ha, PREEMERGENCE) | Plant response rating, Bedstraw (bedstraw; PREEMERGENCE, Rate 50 g/ha) | Plant response rating, Bedstraw (bedstraw; Rate 200 g/ha, PREEMERGENCE) | Plant response rating (0 to 10 scale), Cocklebur (cocklebur; POSTEMERGENCE, Rate 50 g/ha) | Plant response rating, Cocklebur (cocklebur; POSTEMERGENCE, Rate 200 g/ha) | Plant response rating, Wild buckwheat (wild buckwheat; POSTEMERGENCE, Rate 50 g/ha) | Plant response rating, Wild buckwheat (wild buckwheat; POSTEMERGENCE, Rate 200 g/ha) | Plant response rating, Wild buckwheat (wild buckwheat; Rate 200 g/ha, PREEMERGENCE)
90: Plant response rating (0 to 100), Rape (rape; Rate 16 g/ha, POSTEMERGENCE)
8: Plant response rating, Soybean (soybean [4]; POSTEMERGENCE, Rate 50 g/ha)
2: Plant response rating, Sorghum (sorghum; PREEMERGENCE, Rate 50 g/ha) | Plant response rating, Morningglory (morningglory; PREEMERGENCE, Rate 50 g/ha)
3: Plant response rating, Soybean (soybean [4]; Rate 200 g/ha, PREEMERGENCE)
50: Plant response rating (0 to 100), Chickweed (chickweed [1]; PREEMERGENCE, Rate 4 g/ha) | Plant response rating (0 to 100), Chickweed (chickweed [1]; Rate 4 g/ha, POSTEMERGENCE) | Plant response rating (0 to 100), Chickweed (chickweed [1]; Rate 16 g/ha, PREEMERGENCE) | Plant response rating Barley Igri (barley [5]; POSTEMERGENCE, 250 g/ha) | Plant response rating (0 to 100), Soybean (soybean [6]; Rate 16 g/ha, POSTEMERGENCE) | Plant response rating Ryegrass (ryegrass; POSTEMERGENCE, 250 g/ha)
6: Plant response rating, Barley (barley [3]; POSTEMERGENCE, Rate 200 g/ha) | Plant response rating, Sorghum (sorghum; POSTEMERGENCE, Rate 200 g/ha)
30: Plant response rating, Rape (rape; PREEMERGENCE, 250 g/ha) | Plant response rating (0 to 100), Blackgrass (blackgrass; Rate 4 g/ha, POSTEMERGENCE) | Plant response rating (0 to 100), Pigweed (pigweed; PREEMERGENCE, Rate 4 g/ha) | Plant response rating Ryegrass (ryegrass; POSTEMERGENCE, 62 g/ha)
40: Plant response rating, Blackgrass (blackgrass; POSTEMERGENCE, 62 g/ha) | Plant response rating, Blackgrass (blackgrass; PREEMERGENCE, 250 g/ha) | Plant response rating (0 to 100), Blackgrass (blackgrass; Rate 16 g/ha, POSTEMERGENCE) | Plant response rating Barley Igri (barley [5]; POSTEMERGENCE, 62 g/ha)
80: Plant response rating (0 to 100), Rape (rape; POSTEMERGENCE, Rate 4 g/ha) | Plant response rating (0 to 100), Chickweed (chickweed [1]; Rate 16 g/ha, POSTEMERGENCE)
4: Plant response rating (0 to 10 scale), Barley (barley [3]; POSTEMERGENCE, Rate 50 g/ha) | Plant response rating, Sorghum (sorghum; Rate 200 g/ha, PREEMERGENCE)
60: Plant response rating, Soybean (soybean [6]; POSTEMERGENCE, 62 g/ha) | Plant response rating, Soybean (soybean [6]; POSTEMERGENCE, 250 g/ha)
20: Plant response rating, Rape (rape; PREEMERGENCE, 62 g/ha) | Plant response rating, Blackgrass (blackgrass; PREEMERGENCE, 62 g/ha) | Plant response rating Barley Igri (barley [5]; PREEMERGENCE, 250 g/ha) | Plant response rating (0 to 100), Barley Igri (barley [5]; Rate 4 g/ha, POSTEMERGENCE) | Plant response rating (0 to 100), Barley Igri (barley [5]; Rate 16 g/ha, POSTEMERGENCE) | Plant response rating (0 to 100), Soybean (soybean [6]; POSTEMERGENCE, Rate 4 g/ha) | Plant response rating (0 to 100), Ryegrass (ryegrass; POSTEMERGENCE, Rate 4 g/ha) | Plant response rating Ryegrass (ryegrass; PREEMERGENCE, 250 g/ha) | Plant response rating (0 to 100), Ryegrass (ryegrass; Rate 16 g/ha, POSTEMERGENCE)

Source: patent publication US6358885B1, “Substituted phenylheterocyclic herbicides” (Mississippi State University, priority 1992, dated 2002)
